What was measured:
Type in all cases: in vivo
Conditions in all cases: active ingredient amount 31 g/ha, 14th day after application
[1] = system: green foxtail (Setaria viridis L.); test: Test Example 1: foliar treatment, growth inhibition rate on 14th day
Outline: (§1)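 Sow seeds in upland soil pots; at target leaf stage (wild oat 0.4–1.2, rice 0.2–2.7, foxtail 0.5–3.2, soybean primary leaf) spray formulated compound in water, 1,000 L/ha, 0.1 vol % surfactant. Score inhibition visually at day 14, 0–100%.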

[2] = system: wild oat (Avena fatua L.); test: as above
Outline: as §1

[3] = system: italian ryegrass (Lolium multiflorum Lam.); test: as above
Outline: (§2)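 Visual 0–100% inhibition scoring (100 = complete kill) at 14 days after foliar treatment of soil-grown seedlings at species-specific leaf stages, with the compound sprayed as a wettable powder or emulsifiable concentrate dilution.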

[4] = system: rice (Oryza sativa L.); test: as above
Outline: as §1

[5] = system: soybean (Glycine max Merr.); test: as above
Outline: as §1

[6] = system: crabgrass (Digitaria sanquinalis L.); test: as above
Outline: as §2

[7] = system: corn (Zea mays L.); test: as above
Outline: as §2

[8] = system: redroot pigweed (Amaranthus retroflexus L.); test: as above
Outline: as §2

[9] = system: wheat (Triticum aestivum L.); test: as above
Outline: as §2

[10] = system: barnyardgrass (Echinochloa crus-qalli L.); test: as above
Outline: as §2

[11] = system: green foxtail (Setaria viridis L.); test: Test Example 2: soil application on the day after sowing, growth inhibition rate on 14th day
Outline: (§3)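 Field soil in 1/300,000 ha pots was sown, and the next day compounds formulated as wettable powders or emulsifiable concentrates were diluted in water (1,000 L/ha) and soil-sprayed at the prescribed active ingredient rates. Growth inhibition was scored visually 14 days later, 0 (untreated) to 100 (complete kill).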

[12] = system: rice (Oryza sativa L.); test: as above
Outline: as §3

[13] = system: soybean (Glycine max Merr.); test: as above
Outline: as §3

[14] = system: corn (Zea mays L.); test: as above
Outline: as §3

[15] = system: redroot pigweed (Amaranthus retroflexus L.); test: as above
Outline: as §3

[16] = system: velvetleaf (Abutilon theophrasti MEDIC.); test: as above
Outline: as §3

[17] = system: crabgrass (Digitaris sanquinalis L.); test: as above
Outline: as §3

[18] = system: prickly sida (Sida spinosa L.); test: as above
Outline: as §3

[19] = system: wheat (Triticum aestivum L.); test: as above
Outline: as §3

[20] = system: barnyardgrass (Echinochloa crus-qalli L.); test: as above
Outline: as §3

Row | SMILES | Growth inhibition rate (%) Green foxtail [1] [%] | Growth inhibition rate (%) Wild oat [2] [%] | Growth inhibition rate (%) Italian ryegrass [3] [%] | Growth inhibition rate (%) Rice [4] [%] | Growth inhibition rate (%) Soybean [5] [%] | Growth inhibition rate (%) Crabgrass [6] [%] | Growth inhibition rate (%) Corn [7] [%] | Growth inhibition rate (%) Redroot pigweed [8] [%] | Growth inhibition rate (%) Wheat [9] [%] | Growth inhibition rate (%) Barnyardgrass [10] [%] | Growth inhibition rate (%) Green foxtail [11] [%] | Growth inhibition rate (%) Rice [12] [%] | Growth inhibition rate (%) Soybean [13] [%] | Growth inhibition rate (%) Corn [14] [%] | Growth inhibition rate (%) Redroot pigweed [15] [%] | Growth inhibition rate (%) Velvetleaf [16] [%] | Growth inhibition rate (%) Crabgrass [17] [%] | Growth inhibition rate (%) Prickly sida [18] [%] | Growth inhibition rate (%) Wheat [19] [%] | Growth inhibition rate (%) Barnyardgrass [20] [%]
1 | CCn1ncc(OC(C)=O)c(-c2cc(Oc3nc4ccc(Cl)cc4o3)ccc2C)c1=O [Compound 2-169] | 100 | 88 | 85 | 83 | 40 | 100 | 98 | 0 | 85 | 100 | 98 | 0 | 0 | 0 | 0 | 0 | 98 | 0 | 0 | 70
2 | CC(=O)Oc1c(C)nn(C)c(=O)c1-c1cc(Oc2cnc(C(F)(F)F)cn2)ccc1C [Compound 2-195] | 93 | 90 | 85 | 40 | 30 | 90 | 83 | 0 | 35 | 93 | 99 | 20 | 0 | 0 | 0 | 0 | 98 | 0 | 0 | 98

From patent publication US10870638B2, “Pyridazinone compound or its salt, and herbicide containing it” (ISHIHARA SANGYO KAISHA, LTD., priority 2016, dated 2020)
